The values below come from patent publication US20140005163A1 (NOVARTIS AG, priority 2010, published 2014).

Series [1] deals with PKB Ser473 phosphorylation in Rat1-myr-HA-p110 delta cells. Put plainly: Reverse protein array assay, PKB Ser473 phosphorylation in Rat1-myr-p110 delta cells. Format: cell-based. The following applies: read-out: p-PKB IC50. In a few lines:
(§1)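 Lysates were arrayed at four dilutions, and phospho-PKB Ser473 was quantified by relative fluorescence signal. They came from Rat1-myr-HA-p110 alpha, beta or delta cells exposed for 30 min at 37 °C to an 8-point compound series with 0.2% DMSO constant.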

For another series, the target named is T1, PI3K delta (Homo sapiens, UniProt O00329).
T1 construct: for the full-length p110-d subunit are generated and fused by overlapping PCR; p85(iSH2) fusion partner (see partner chain) (N); His tag (C); made in house; host or cells: baculovirus; Tn5 (Trichoplusia ni) or TiniPro insect cells
Description: PI3K delta kinase assay (Kinase-Glo luminescence). It counts as biochemical. In a few lines:
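ATP 1 μM, PI 10 μg/mL, PI3Kδ construct BV1060 10 nM (final); 10 mM Tris pH 7.5, 3 mM MgCl2, 50 mM NaCl, 0.05% CHAPS, 1 mM DTT; 60 min RT; Kinase-Glo stop, luminescence.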

Another series in a line: Solubility at pH 6.8. Format: physicochemical. The following applies: pH 6.8, aqueous buffer, thermodynamic from solid; read-out: solubility. In a few lines:
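Solubility was measured at pH 6.8 following the cited Zhou et al. (2007) procedure.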

In series [2] the test system is PKB Ser473 phosphorylation in Rat1-myr-HA-p110 beta cells. Put plainly: Reverse protein array assay, PKB Ser473 phosphorylation in Rat1-myr-p110 beta cells. It counts as cell-based. The following applies: 0.5 h, pAkt Ser473, 30 minutes incubation, read-out: p-PKB IC50. In a few lines:
as §1

Another series deals with T2, PI3K beta (Homo sapiens, UniProt P42338).
T2 construct: for the full-length p110-b subunit are generated and fused by overlapping PCR; p85(iSH2) fusion partner (see partner chain) (N); His tag (C); made in house; host or cells: baculovirus; Tn5 (Trichoplusia ni) or TiniPro insect cells
Put plainly: PI3K beta kinase assay (Kinase-Glo luminescence). Format: biochemical. In a few lines: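 p110β full-length/p85 iSH2 construct (BV-949), 25 nM, with 1 μM ATP and 10 μg/mL phosphatidylinositol in 10 mM Tris pH 7.5, 3 mM MgCl2, 50 mM NaCl, 0.05% CHAPS, 1 mM DTT. 60 min at room temperature; ATP remaining read by Kinase-Glo luminescence. IC50 from 8-point four-parameter logistic fit.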

Structures are written as SMILES. Converted amounts (≈) assume the structure as drawn.

T2 sequence (P42338 with tags, fused parts or gaps limits assumed): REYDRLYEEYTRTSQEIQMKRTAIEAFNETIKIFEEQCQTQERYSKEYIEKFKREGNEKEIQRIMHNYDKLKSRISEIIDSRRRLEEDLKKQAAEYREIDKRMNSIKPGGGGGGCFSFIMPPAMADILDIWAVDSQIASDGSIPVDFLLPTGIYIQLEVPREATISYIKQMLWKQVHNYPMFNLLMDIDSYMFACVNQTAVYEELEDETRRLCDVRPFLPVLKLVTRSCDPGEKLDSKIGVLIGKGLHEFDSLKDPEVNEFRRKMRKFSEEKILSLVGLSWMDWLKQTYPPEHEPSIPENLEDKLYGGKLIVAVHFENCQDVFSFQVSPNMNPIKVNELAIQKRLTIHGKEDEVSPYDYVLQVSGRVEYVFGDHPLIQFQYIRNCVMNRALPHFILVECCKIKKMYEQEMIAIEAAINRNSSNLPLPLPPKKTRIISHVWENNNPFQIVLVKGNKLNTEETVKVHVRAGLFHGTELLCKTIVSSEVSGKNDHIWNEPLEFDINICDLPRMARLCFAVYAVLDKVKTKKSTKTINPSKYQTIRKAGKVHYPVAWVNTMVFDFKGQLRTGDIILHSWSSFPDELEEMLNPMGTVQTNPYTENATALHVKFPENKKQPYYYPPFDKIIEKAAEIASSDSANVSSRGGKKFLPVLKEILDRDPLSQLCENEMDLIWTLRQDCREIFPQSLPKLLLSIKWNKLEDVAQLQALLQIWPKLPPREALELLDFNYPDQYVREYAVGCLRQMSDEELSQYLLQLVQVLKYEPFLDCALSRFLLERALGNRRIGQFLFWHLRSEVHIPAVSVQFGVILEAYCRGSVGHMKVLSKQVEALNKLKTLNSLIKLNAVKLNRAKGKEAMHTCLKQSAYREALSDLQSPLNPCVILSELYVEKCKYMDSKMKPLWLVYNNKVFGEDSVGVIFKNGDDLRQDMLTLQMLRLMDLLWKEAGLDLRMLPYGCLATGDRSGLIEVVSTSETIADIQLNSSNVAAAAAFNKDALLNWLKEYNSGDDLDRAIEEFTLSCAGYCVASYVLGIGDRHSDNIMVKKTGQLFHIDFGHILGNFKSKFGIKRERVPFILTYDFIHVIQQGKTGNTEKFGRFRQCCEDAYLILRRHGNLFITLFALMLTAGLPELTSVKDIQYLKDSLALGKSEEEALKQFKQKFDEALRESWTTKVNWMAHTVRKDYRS
T1 sequence (O00329 with tags, fused parts or gaps limits assumed): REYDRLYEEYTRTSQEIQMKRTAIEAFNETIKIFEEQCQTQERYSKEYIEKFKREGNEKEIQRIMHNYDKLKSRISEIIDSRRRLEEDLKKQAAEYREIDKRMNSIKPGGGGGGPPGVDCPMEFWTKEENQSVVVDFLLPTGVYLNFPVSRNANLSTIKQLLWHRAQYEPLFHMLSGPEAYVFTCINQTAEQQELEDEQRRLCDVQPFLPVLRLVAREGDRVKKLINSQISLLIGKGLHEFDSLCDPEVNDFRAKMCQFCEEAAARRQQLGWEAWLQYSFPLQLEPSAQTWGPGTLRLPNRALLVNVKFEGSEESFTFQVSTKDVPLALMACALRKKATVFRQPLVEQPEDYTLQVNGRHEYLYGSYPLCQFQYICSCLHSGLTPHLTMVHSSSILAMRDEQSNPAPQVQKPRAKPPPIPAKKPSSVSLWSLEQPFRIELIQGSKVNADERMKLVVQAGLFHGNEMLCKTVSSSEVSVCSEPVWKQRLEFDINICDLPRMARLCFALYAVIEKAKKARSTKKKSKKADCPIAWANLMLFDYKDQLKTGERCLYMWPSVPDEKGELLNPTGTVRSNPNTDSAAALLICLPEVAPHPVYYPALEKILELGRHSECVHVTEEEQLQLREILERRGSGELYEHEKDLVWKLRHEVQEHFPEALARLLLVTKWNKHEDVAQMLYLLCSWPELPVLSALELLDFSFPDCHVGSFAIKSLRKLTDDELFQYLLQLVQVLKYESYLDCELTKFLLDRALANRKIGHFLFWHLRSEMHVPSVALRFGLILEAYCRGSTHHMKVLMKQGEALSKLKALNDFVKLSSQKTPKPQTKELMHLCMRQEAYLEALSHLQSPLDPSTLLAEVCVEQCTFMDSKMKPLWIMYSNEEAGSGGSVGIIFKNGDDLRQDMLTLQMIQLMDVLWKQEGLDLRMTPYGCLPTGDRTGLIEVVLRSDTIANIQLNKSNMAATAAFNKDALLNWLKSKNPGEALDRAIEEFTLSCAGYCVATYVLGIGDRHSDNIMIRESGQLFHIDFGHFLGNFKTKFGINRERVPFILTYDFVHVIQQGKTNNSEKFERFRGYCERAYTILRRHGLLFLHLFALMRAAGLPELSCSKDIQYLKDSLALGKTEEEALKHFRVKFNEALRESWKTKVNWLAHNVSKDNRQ

As to `Cc1nn(C(C)C)cc1-n1c(=O)n(C)c2cnc3ccc(-c4cncc(C(C)(C)O)c4)cc3c21` [Example 215.1, 8-[5-(1-Hydroxy-1-methyl-ethyl)-pyridin-3-yl]-1-(1-isopropyl-3-methyl-1H-pyrazol-4-yl)-3-methyl-1,3-dihydro-imidazo[4,5-c]quinolin-2-one], the IC50 was 330 nM in series [1], 14 nM at PI3K delta, 48 nM in series [2] and 40 nM on PI3K beta. Further, the solubility in the series “Solubility at pH 6.8” is over 457 µg/mL.
For `COc1ccc(-c2ccc3ncc4c(c3n2)n(-c2cc(C)nn2C)c(=O)n4C)cc1OC` [Example 253, 8-(3,4-Dimethoxy-phenyl)-1-(2,5-dimethyl-2H-pyrazol-3-yl)-3-methyl-1,3-dihydro-1,3,5,9-tetraaza-cyclopenta[a]naphthalen-2-one], the IC50 was found to be 44 nM in series [1], 5 nM on PI3K delta, 16 nM in series [2] and 8 nM at PI3K beta. Moreover, the solubility in “Solubility at pH 6.8” is 7 µg/mL (≈ 16.3 µM).
In the case of `COc1ncc(-c2ccc3ncc4c(c3c2)n(-c2cn(C)nc2Cl)c(=O)n4C)cn1` [Example 17.3, 1-(3-Chloro-1-methyl-1H-pyrazol-4-yl)-8-(2-methoxy-pyrimidin-5-yl)-3-methyl-1,3-dihydro-imidazo[4,5-c]quinolin-2-one], the IC50 came to 28 nM in series [1], 5 nM on PI3K delta, 22 nM in series [2] and 37 nM on PI3K beta. Further, the solubility in “Solubility at pH 6.8” worked out at 4 µg/mL (≈ 9.48 µM).
In the case of `CCn1c(=O)n(-c2cn(C)nc2C)c2c3nc(-c4ccc(OC)c(OC)c4)ccc3ncc21` [Example 251, 8-(3,4-Dimethoxy-phenyl)-1-(1,3-dimethyl-1H-pyrazol-4-yl)-3-ethyl-1,3-dihydro-1,3,5,9-tetraaza-cyclopenta[a]naphthalen-2-one], the IC50 worked out at 140 nM in series [1], 170 nM at PI3K delta, 64 nM in series [2] and 504 nM on PI3K beta. In addition, the solubility in the series “Solubility at pH 6.8” turned out to be 12 µg/mL (≈ 27 µM).
For the compound `CCOc1ccc(-c2ccc3ncc4c(c3c2)n(-c2cn(CCO)nc2C)c(=O)n4C)cn1` [Example 103.2, 8-(6-Ethoxy-pyridin-3-yl)-1-[1-(2-hydroxy-ethyl)-3-methyl-1H-pyrazol-4-yl]-3-methyl-1,3-dihydro-imidazo[4,5-c]quinolin-2-one], the IC50 in series [1] came out at 106 nM; on PI3K delta it was 71 nM; in series [2], 14 nM; at PI3K beta it was 332 nM. Besides, in the series “Solubility at pH 6.8”, the solubility came out at 10 µg/mL (≈ 22.5 µM).
As for `Cc1ncc(-c2ccc3ncc4c(c3c2)n(-c2cn(C)nc2Cl)c(=O)n4C)cc1N` [Example 88.1, 8-(5-Amino-6-methyl-pyridin-3-yl)-1-(3-chloro-1-methyl-1H-pyrazol-4-yl)-3-methyl-1,3-dihydro-imidazo[4,5-c]quinolin-2-one], the IC50 in series [1] amounted to 15 nM; on PI3K delta, 4 nM; in series [2], 8 nM; on PI3K beta it was 28 nM. In addition, the solubility in “Solubility at pH 6.8” is 3 µg/mL (≈ 7.14 µM).
For the compound `Cc1nn(C)c(C)c1-n1c(=O)n(C)c2cnc3ccc(-c4ccc(N(C)C)nc4)cc3c21` [Example 4.3, 8-(6-Dimethylamino-pyridin-3-yl)-3-methyl-1-(1,3,5-trimethyl-1H-pyrazol-4-yl)-1,3-dihydro-imidazo[4,5-c]quinolin-2-one], the IC50 in series [1] is 787 nM; at PI3K delta it was 98 nM; in series [2] it was 615 nM; at PI3K beta, 382 nM. For the same compound, the solubility in the series “Solubility at pH 6.8” stood at 71 µg/mL (≈ 166 µM).
In the case of `Cc1nn(C)cc1-n1c(=O)n(C)c2cnc3ccc(-c4cnc(F)c(N)c4)cc3c21` [Example 149.2, 8-(5-Amino-6-fluoro-pyridin-3-yl)-1-(1,3-dimethyl-1H-pyrazol-4-yl)-3-methyl-1,3-dihydro-imidazo[4,5-c]quinolin-2-one], the IC50 was determined as 56 nM in series [1], 8 nM at PI3K delta, 68 nM in series [2] and 12 nM on PI3K beta. Moreover, the solubility in “Solubility at pH 6.8” stood at 21 µg/mL (≈ 52.1 µM).
For the compound `Cc1nn(C(C)C)cc1-n1c(=O)n(C)c2cnc3ccc(-c4cnc(F)c(N)c4)cc3c21` [Example 149.1, 8-(5-Amino-6-fluoro-pyridin-3-yl)-1-(1-isopropyl-3-methyl-1H-pyrazol-4-yl)-3-methyl-1,3-dihydro-imidazo[4,5-c]quinolin-2-one], the IC50 in series [1] came to 118 nM; at PI3K delta, 17 nM; in series [2], 66 nM; at PI3K beta, 68 nM. In addition, the solubility in “Solubility at pH 6.8” was found to be 13 µg/mL (≈ 30.1 µM).
On to `COCCOc1ccc(-c2ccc3ncc4c(c3c2)n(-c2cn(C)nc2C)c(=O)n4C)cc1OC` [Example 30.1, 1-(1,3-Dimethyl-1H-pyrazol-4-yl)-8-[3-methoxy-4-(2-methoxy-ethoxy)-phenyl]-3-methyl-1,3-dihydro-imidazo[4,5-c]quinolin-2-one], for which the IC50 in series [1] was 91 nM; on PI3K delta, 36 nM; in series [2], 38 nM; on PI3K beta it was 157 nM. Besides, the solubility in the series “Solubility at pH 6.8” worked out at 4 µg/mL (≈ 8.45 µM).
For the compound `CCOc1ccc(-c2ccc3ncc4c(c3c2)n(-c2c(C)nn(C)c2C)c(=O)n4C)cc1OC` [Example 29.2, 8-(4-Ethoxy-3-methoxy-phenyl)-3-methyl-1-(1,3,5-trimethyl-1H-pyrazol-4-yl)-1,3-dihydro-midazo[4,5-c]quinolin-2-one], the IC50 in series [1] came out at 234 nM; on PI3K delta it was 56 nM; in series [2], 143 nM; at PI3K beta, 167 nM. Further, the solubility in the series “Solubility at pH 6.8” amounted to 7 µg/mL (≈ 15.3 µM).
For `CCOCc1cc(-c2ccc3ncc4c(c3c2)n(-c2cn(C)nc2C)c(=O)n4C)cnc1N` [Example 166.1, 8-(6-Amino-5-ethoxymethyl-pyridin-3-yl)-1-(1,3-dimethyl-1H-pyrazol-4-yl)-3-methyl-1,3-dihydro-imidazo[4,5-c]quinolin-2-one], the IC50 in series [1] was determined as 57 nM; on PI3K delta it was 3 nM; in series [2] it was 54 nM; at PI3K beta, 37 nM. For the same compound, the solubility in “Solubility at pH 6.8” was determined as 33 µg/mL (≈ 74.4 µM).
For the compound `Cc1nn(C)cc1-n1c(=O)n(C)c2cnc3ccc(-c4cncc(N)c4)cc3c21` [Example 45.1, 8-(5-Amino-pyridin-3-yl)-1-(1,3-dimethyl-1H-pyrazol-4-yl)-3-methyl-1,3-dihydro-imidazo[4,5-c]quinolin-2-one], the IC50 in series [1] is 154 nM; at PI3K delta, 19 nM; in series [2], 80 nM; at PI3K beta, 47 nM. Further, in “Solubility at pH 6.8”, the solubility was over 385 µg/mL.
Regarding `CCn1cc(-n2c(=O)n(C)c3cnc4ccc(-c5ccc(N(C)C)nc5)cc4c32)c(C)n1` [Example 4.2, 8-(6-Dimethylamino-pyridin-3-yl)-1-(1-ethyl-3-methyl-1H-pyrazol-4-yl)-3-methyl-1,3-dihydro-imidazo[4,5-c]quinolin-2-one], the IC50 in series [1] is 44 nM; on PI3K delta, 6 nM; in series [2], 19 nM; at PI3K beta, 225 nM. Also, the solubility in the series “Solubility at pH 6.8” was determined as 7 µg/mL (≈ 16.4 µM).
For `CCNc1cc(-c2ccc3ncc4c(c3c2)n(-c2c(C)nn(CCO)c2C)c(=O)n4C)cnc1C` [Example 210, 8-(5-Ethylamino-6-methyl-pyridin-3-yl)-1-[1-(2-hydroxy-ethyl)-3,5-dimethyl-1H-pyrazol-4-yl]-3-methyl-1,3-dihydro-imidazo[4,5-c]quinolin-2-one], the IC50 in series [1] stood at 53 nM; at PI3K delta, 13 nM; in series [2], 22 nM; on PI3K beta, 49 nM. The solubility in “Solubility at pH 6.8” is 445 µg/mL (≈ 944 µM).
For `Cc1ccc(-c2ccc3ncc4c(c3c2)n(-c2cn(C)nc2C)c(=O)n4C)cn1` [Example 7.2, 1-(1,3-Dimethyl-1H-pyrazol-4-yl)-3-methyl-8-(6-methyl-pyridin-3-yl)-1,3-dihydro-imidazo[4,5-c]quinolin-2-one], in that order: 28 nM, 13 nM, 35 nM, 66 nM and 9 µg/mL (≈ 23.4 µM).
For the compound `COc1ccc(-c2ccc3ncc4[nH]c(=O)n(-c5cc(C)nn5C)c4c3n2)cc1OC` [Example 252, 8-(3,4-Dimethoxy-phenyl)-1-(2,5-dimethyl-2H-pyrazol-3-yl)-1,3-dihydro-1,3,5,9-tetraaza-cyclopenta[a]naphthalen-2-one], the IC50 in series [1] stood at 39 nM; on PI3K delta, 7 nM; in series [2] it was 20 nM; on PI3K beta it was 24 nM. For the same compound, the solubility in “Solubility at pH 6.8” came to 5 µg/mL (≈ 12 µM).
